Target: T1, MPO (purified from human polynuclear leukocytes) (Homo sapiens, UniProt P05164)
T1 construct: purified from human polynuclear leukocytes; purchased Calbiochem/EMD Biosciences; host or cells: human polynuclear leukocytes (natural source)
Assay: MPO Amplex Red Activity Assay
Format: biochemical
Conditions: Table 1A, 2 μM H2O2, pH 7.4
Method in brief: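 Human leukocyte MPO […] oxidises 30 μM Amplex Red with 2 μM H2O2 in 50 mM NaPi pH 7.4, 150 mM NaCl, 1 mM DTPA, 2% DMSO. Resorufin fluorescence (ex 530/em 580 nm) read every 20 s, minus catalase background. kobs from the first 600 s, corrected for auto-inactivation, fit versus [I] for kinact/KI.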

T1 sequence (P05164 279-745 limits assumed): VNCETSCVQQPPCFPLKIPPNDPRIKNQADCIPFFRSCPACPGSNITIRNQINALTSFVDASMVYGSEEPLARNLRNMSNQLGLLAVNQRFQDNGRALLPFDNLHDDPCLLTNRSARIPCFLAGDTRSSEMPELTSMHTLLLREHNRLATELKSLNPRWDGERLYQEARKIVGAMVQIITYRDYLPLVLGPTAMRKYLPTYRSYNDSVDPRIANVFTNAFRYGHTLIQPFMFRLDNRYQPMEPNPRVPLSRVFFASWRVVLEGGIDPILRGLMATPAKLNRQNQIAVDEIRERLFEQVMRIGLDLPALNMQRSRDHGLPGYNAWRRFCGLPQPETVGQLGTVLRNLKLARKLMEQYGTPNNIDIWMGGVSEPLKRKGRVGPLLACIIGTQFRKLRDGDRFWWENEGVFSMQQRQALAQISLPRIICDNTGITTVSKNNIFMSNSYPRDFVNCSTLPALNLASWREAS
T1 sequence (P05164 165-273 limits assumed): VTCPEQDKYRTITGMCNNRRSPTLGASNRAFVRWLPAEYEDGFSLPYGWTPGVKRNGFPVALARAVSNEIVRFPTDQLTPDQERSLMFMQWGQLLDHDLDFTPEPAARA

Row | SMILES | MPO kinact/Ki
1 | COc1ccc(Cl)cc1-c1cc(=O)[nH]c(=S)n1CCCNS(C)(=O)=O [Example 353, N-{3-[6-(5-chloro-2-methoxyphenyl)-4-oxo-2-thioxo-3,4-dihydropyrimidin-1(2H)-yl]propyl}methanesulfonamide] | 11000 1/s per M
2 | NCCn1c(-c2cc3ccccc3s2)cc(=O)[nH]c1=S [Example 354, 1-(2-aminoethyl)-6-(1-benzothiophen-2-yl)-2-thioxo-2,3-dihydropyrimidin-4(1H)-one] | 1830 1/s per M
3 | COc1ccc(-c2cc(=O)[nH]c(=S)n2CCO)cc1OC [Example 355, 6-(3,4-dimethoxyphenyl)-1-(2-hydroxyethyl)-2-thioxo-2,3-dihydropyrimidin-4(1H)-one] | 1540 1/s per M
4 | O=c1cc(-c2ccc3c(c2)OCCO3)n(CCO)c(=S)[nH]1 [Example 356, 6-(2,3-dihydro-1,4-benzodioxin-6-yl)-1-(2-hydroxyethyl)-2-thioxo-2,3-dihydropyrimidin-4(1H)-one] | 2910 1/s per M
5 | NCCn1c(-c2ccc3c(c2)OCCO3)cc(=O)[nH]c1=S [Example 357, 1-(2-aminoethyl)-6-(2,3-dihydro-1,4-benzodioxin-6-yl)-2-thioxo-2,3-dihydropyrimidin-4(1H)-one] | 2940 1/s per M
6 | NC(=O)Cn1c(-c2ccc3c(c2)OCCO3)cc(=O)[nH]c1=S [Example 358, 2-[6-(2,3-dihydro-1,4-benzodioxin-6-yl)-4-oxo-2-thioxo-3,4-dihydropyrimidin-1(2H)-yl]acetamide] | 1710 1/s per M
7 | COc1ccc(Cl)cc1-c1cc(=O)[nH]c(=S)n1C[C@H](O)CO [Example 359, 6-(5-chloro-2-methoxyphenyl)-1-[(2S)-2,3-dihydroxypropyl]-2-thioxo-2,3-dihydropyrimidin-4(1H)-one] | 2660 1/s per M
8 | COc1ccc(-c2cc(=O)[nH]c(=S)n2CCN)cc1OC [Example 360, 1-(2-aminoethyl)-6-(3,4-dimethoxyphenyl)-2-thioxo-2,3-dihydropyrimidin-4(1H)-one] | 2280 1/s per M
9 | COc1ccc(Cl)cc1-c1cc(=O)[nH]c(=S)n1C[C@H](C)N [Example 361, 1-[(2S)-2-aminopropyl]-6-(5-chloro-2-methoxyphenyl)-2-thioxo-2,3-dihydropyrimidin-4(1H)-one] | 2060 1/s per M
10 | NCCn1c(-c2cccc3ncsc23)cc(=O)[nH]c1=S [Example 362, 1-(2-aminoethyl)-6-(1,3-benzothiazol-7-yl)-2-thioxo-2,3-dihydropyrimidin-4(1H)-one] | 2690 1/s per M
11 | NC(=O)Cn1c(-c2cccc3c2OCCO3)cc(=O)[nH]c1=S [Example 363, 2-[6-(2,3-dihydro-1,4-benzodioxin-5-yl)-4-oxo-2-thioxo-3,4-dihydropyrimidin-1(2H)-yl]acetamide] | 9680 1/s per M
12 | NC(=O)Cn1c(-c2cccc3c2OCC3)cc(=O)[nH]c1=S [Example 364, 2-[6-(2,3-dihydro-1-benzofuran-7-yl)-4-oxo-2-thioxo-3,4-dihydropyrimidin-1(2H)-yl]acetamide] | 6580 1/s per M
13 | CSc1ccccc1-c1cc(=O)[nH]c(=S)n1CC(N)=O [Example 365, 2-{6-[2-(methylsulfanyl)phenyl]-4-oxo-2-thioxo-3,4-dihydropyrimidin-1(2H)yl}acetamide] | 9290 1/s per M
14 | O=c1cc(-c2ccccc2O)n(CCO)c(=S)[nH]1 [Example 366, 1-(2-hydroxyethyl)-6-(2-hydroxyphenyl)-2-thioxo-2,3-dihydropyrimidin-4(1H)-one] | 13600 1/s per M
15 | NC(=O)Cn1c(-c2cccc3ncccc23)cc(=O)[nH]c1=S [Example 367, 2-[4-oxo-6-(quinolin-5-yl)-2-thioxo-3,4-dihydropyrimidin-1(2H)-yl]acetamide] | 1340 1/s per M
16 | NC(=O)Cn1c(-c2ccccc2O)cc(=O)[nH]c1=S [Example 368, 2-[6-(2-hydroxyphenyl)-4-oxo-2-thioxo-3,4-dihydropyrimidin-1(2H)-yl]acetamide] | 3270 1/s per M
17 | COc1ccc(Cl)cc1-c1cc(=O)[nH]c(=S)n1CC(=O)NCCN [Example 369, N-(2-aminoethyl)-2-[6-(5-chloro-2-methoxyphenyl)-4-oxo-2-thioxo-3,4-dihydropyrimidin-1(2H)-yl]acetamide] | 8040 1/s per M
18 | COc1ccc(OC)c(-c2cc(=O)[nH]c(=S)n2CC(=O)NCCN)c1 [Example 370, N-(2-aminoethyl)-2-[6-(2,5-dimethoxyphenyl)-4-oxo-2-thioxo-3,4-dihydropyrimidin-1(2H)-yl]acetamide] | 9060 1/s per M

Row | SMILES | MPO kinact/Ki
19 | COc1ccc(F)cc1-c1cc(=O)[nH]c(=S)n1CC(=O)NCCN [Example 371, N-(2-aminoethyl)-2-[6-(5-fluoro-2-methoxyphenyl)-4-oxo-2-thioxo-3,4-dihydropyrimidin-1(2H)-yl]acetamide] | 4570 1/s per M
20 | COc1ccccc1-c1cc(=O)[nH]c(=S)n1CC(=O)NCCN [Example 372, N-(2-aminoethyl)-2-[6-(2-methoxyphenyl)-4-oxo-2-thioxo-3,4-dihydropyrimidin-1(2H)-yl]acetamide] | 6250 1/s per M
21 | COc1ccc(C)cc1-c1cc(=O)[nH]c(=S)n1CC(=O)NCCN [Example 373, N-(2-aminoethyl)-2-[6-(2-methoxy-5-methylphenyl)-4-oxo-2-thioxo-3,4-dihydropyrimidin-1(2H)-yl]acetamide] | 12800 1/s per M
22 | CNCCCn1c(-c2cc(F)ccc2OC)cc(=O)[nH]c1=S [Example 374, 6-(5-fluoro-2-methoxyphenyl)-1-[3-(methylamino)propyl]-2-thioxo-2,3-dihydropyrimidin-4(1H)-one] | 4600 1/s per M
23 | COc1ccc(F)cc1-c1cc(=O)[nH]c(=S)n1CCCN(C)C(=N)N [Example 375, 1-{3-[6-(5-fluoro-2-methoxyphenyl)-4-oxo-2-thioxo-3,4-dihydropyrimidin-1(2H)yl]propyl}-1-methylguanidine] | 11300 1/s per M
24 | COc1ccc(Cl)cc1-c1cc(=O)[nH]c(=S)n1CC(=O)NC(=N)N [Example 376, N-carbamidoyl-2-[6-(5-chloro-2-methoxyphenyl)-4-oxo-2-thioxo-3,4-dihydropyrimidin-1(2H)-yl]acetamide] | 7870 1/s per M
25 | NC(=O)Cn1c(-c2cc(Cl)ccc2O)cc(=O)[nH]c1=S [Example 377, 2-[6-(5-chloro-2-hydroxyphenyl)-4-oxo-2-thioxo-3,4-dihydropyrimidin-1(2H)-yl]acetamide] | 8770 1/s per M
26 | COc1ccc(OCCO)c(-c2cc(=O)[nH]c(=S)n2CC(=O)NCCN)c1 [Example 378, N-(2-aminoethyl)-2-{6-[2-(2-hydroxyethoxy)-5-methoxyphenyl]-4-oxo-2-thioxo-3,4-dihydropyrimidin-1(2H)-yl}acetamide] | 5040 1/s per M
27 | COc1ccc(OCCO)c(-c2cc(=O)[nH]c(=S)n2CCO)c1 [Example 379, 6-[2-(2-hydroxyethoxy)-5-methoxyphenyl]-1-(2-hydroxyethyl)-2-thioxo-2,3-dihydropyrimidin-4(1H)-one] | 7370 1/s per M
28 | COc1ccc(OCCO)c(-c2cc(=O)[nH]c(=S)n2CC(N)=O)c1 [Example 380, 2-{6-[2-(2-hydroxyethoxy)-5-methoxyphenyl]-4-oxo-2-thioxo-3,4-dihydropyrimidin-1(2H)-yl}acetamide] | 4470 1/s per M
29 | COc1ccc(-c2cc(=O)[nH]c(=S)n2CCNCCN)c(OC)c1 [Example 381, 1-{2-[(2-aminoethyl)amino]ethyl}-6-(2,4-dimethoxyphenyl)-2-thioxo-2,3-dihydropyrimidin-4(1H)-one] | 1970 1/s per M
30 | NCCn1c(-c2ccccc2OC(F)(F)F)cc(=O)[nH]c1=S [Example 382, 1-(2-aminoethyl)-2-thioxo-6-[2-(trifluoromethoxy)phenyl]-2,3-dihydropyrimidin-4(1H)-one] | 2310 1/s per M
31 | COc1ccc(-c2cc(=O)[nH]c(=S)n2CCNCCO)c(OC)c1 [Example 383, 6-(2,4-dimethoxyphenyl)-1-{2-[(2-hydroxyethyl)amino]ethyl}-2-thioxo-2,3-dihydropyrimidin-4(1H)-one] | 5230 1/s per M
32 | COc1cccc(-c2cc(=O)[nH]c(=S)n2CC(N)=O)c1 [Example 384, 2-[6-(3-methoxyphenyl)-4-oxo-2-thioxo-3,4-dihydropyrimidin-1(2H)-yl]acetamide] | 2930 1/s per M
33 | COc1ccc(-c2cc(=O)[nH]c(=S)n2CC(=O)NCCO)c(OC)c1 [Example 385, 2-[6-(2,4-dimethoxyphenyl)-4-oxo-2-thioxo-3,4-dihydropyrimidin-1(2H)-yl]-N-(2-hydroxyethyl)acetamide] | 3530 1/s per M
34 | COc1cccc(OC)c1-c1cc(=O)[nH]c(=S)n1CC(N)=O [Example 386, 2-[6-(2,6-dimethoxyphenyl)-4-oxo-2-thioxo-3,4-dihydropyrimidin-1(2H)-yl}acetamide] | 4960 1/s per M
35 | COc1cc(OCCO)ccc1-c1cc(=O)[nH]c(=S)n1CC(N)=O [Example 387, 2-{6-[4-(2-hydroxyethoxy)-2-methoxyphenyl]-4-oxo-2-thioxo-3,4-dihydropyrimidin-1(2H)-yl}acetamide] | 4720 1/s per M
